From ChEMBL document CHEMBL2311510, “A new single-photon emission computed tomography (SPECT) imaging agent for serotonin transporters: [(125)I]Flip-IDAM, (2-((2-((dimethylamino)methyl)-4-iodophenyl)thio)phenyl)methanol” (Bioorg Med Chem Lett, 2013)

Legend:
Brain [1] = experiment: Biodistribution in Sprague-Dawley rat brain assessed as compound level per organ at 11 uCi, iv measured 2 mins post compound dose; assay type: ADME, organism-based; conditions: in vivo
Heart [2] = experiment: Biodistribution in Sprague-Dawley rat heart assessed as compound level per organ at 11 uCi, iv measured 2 mins post compound dose; assay type: ADME, organism-based; conditions: in vivo
Nucleic Acid [3] = experiment: Ratio of drug level in hippocampus to cerebellum in Sprague-Dawley rat at 11 uCi, iv measured 2 mins post compound dose; assay type: ADME, organism-based; conditions: in vivo
Bone [4] = experiment: Biodistribution in Sprague-Dawley rat bone at 11 uCi, iv measured 2 mins post compound dose; assay type: ADME, organism-based, Bone element; conditions: in vivo
Pancreas [5] = experiment: Biodistribution in Sprague-Dawley rat pancreas at 11 uCi, iv measured 120 mins post compound dose; assay type: ADME, organism-based; conditions: in vivo, 2 h
Hypothalamus [6] = experiment: Biodistribution in Sprague-Dawley rat hypothalamus at 11 uCi, iv measured 30 mins post compound dose; assay type: ADME, organism-based; conditions: in vivo, 0.5 h
Spleen [7] = experiment: Biodistribution in Sprague-Dawley rat spleen assessed as compound level per organ at 11 uCi, iv measured 30 mins post compound dose; assay type: ADME, organism-based; conditions: in vivo, 0.5 h
Brain [8] = experiment: Biodistribution in Sprague-Dawley rat brain assessed as compound level per organ at 11 uCi, iv measured 120 mins post compound dose; assay type: ADME, organism-based; conditions: in vivo, 2 h
Liver [9] = experiment: Biodistribution in Sprague-Dawley rat liver assessed as compound level per organ at 11 uCi, iv measured 120 mins post compound dose; assay type: ADME, organism-based; conditions: in vivo, 2 h
Blood [10] = experiment: Biodistribution in Sprague-Dawley rat blood at 11 uCi, iv measured 30 mins post compound dose; assay type: ADME, organism-based; conditions: in vivo, 0.5 h
Blood [11] = experiment: Biodistribution in Sprague-Dawley rat blood assessed as compound level per organ at 11 uCi, iv measured 120 mins post compound dose; assay type: ADME, organism-based; conditions: in vivo, 2 h
Lung [12] = experiment: Biodistribution in Sprague-Dawley rat lung at 11 uCi, iv measured 2 mins post compound dose; assay type: ADME, organism-based; conditions: in vivo
Lung [13] = experiment: Biodistribution in Sprague-Dawley rat lung assessed as compound level per organ at 11 uCi, iv measured 60 mins post compound dose; assay type: ADME, organism-based; conditions: in vivo, 1 h
Cortex [14] = experiment: Biodistribution in Sprague-Dawley rat cortex at 11 uCi, iv measured 120 mins post compound dose; assay type: ADME, organism-based; conditions: in vivo, 2 h
Hypothalamus [15] = experiment: Biodistribution in Sprague-Dawley rat hypothalamus at 11 uCi, iv measured 2 mins post compound dose; assay type: ADME, organism-based; conditions: in vivo
Hypothalamus [16] = experiment: Biodistribution in Sprague-Dawley rat hypothalamus at 11 uCi, iv measured 60 mins post compound dose; assay type: ADME, organism-based; conditions: in vivo, 1 h
Kidney [17] = experiment: Biodistribution in Sprague-Dawley rat kidney assessed as compound level per organ at 11 uCi, iv measured 2 mins post compound dose; assay type: ADME, organism-based; conditions: in vivo
Cerebellum = experiment: Biodistribution in Sprague-Dawley rat cerebellum at 11 uCi, iv measured 2 mins post compound dose; assay type: ADME, organism-based; conditions: in vivo
Muscle tissue [18] = experiment: Biodistribution in Sprague-Dawley rat muscle assessed as compound level per organ at 11 uCi, iv measured 60 mins post compound dose; assay type: ADME, organism-based; conditions: in vivo, 1 h
Muscle tissue [19] = experiment: Biodistribution in Sprague-Dawley rat muscle at 11 uCi, iv measured 2 mins post compound dose; assay type: ADME, organism-based; conditions: in vivo
Blood [20] = experiment: Biodistribution in Sprague-Dawley rat blood assessed as compound level per organ at 11 uCi, iv measured 2 mins post compound dose; assay type: ADME, organism-based; conditions: in vivo
Spleen [21] = experiment: Biodistribution in Sprague-Dawley rat spleen assessed as compound level per organ at 11 uCi, iv measured 60 mins post compound dose; assay type: ADME, organism-based; conditions: in vivo, 1 h
Bone [22] = experiment: Biodistribution in Sprague-Dawley rat bone assessed as compound level per organ at 11 uCi, iv measured 120 mins post compound dose; assay type: ADME, organism-based, Bone element; conditions: in vivo, 2 h
Pancreas [23] = experiment: Biodistribution in Sprague-Dawley rat pancreas assessed as compound level per organ at 11 uCi, iv measured 30 mins post compound dose; assay type: ADME, organism-based; conditions: in vivo, 0.5 h
Heart [24] = experiment: Biodistribution in Sprague-Dawley rat heart at 11 uCi, iv measured 60 mins post compound dose; assay type: ADME, organism-based; conditions: in vivo, 1 h
Bone [25] = experiment: Biodistribution in Sprague-Dawley rat bone at 11 uCi, iv measured 60 mins post compound dose; assay type: ADME, organism-based, Bone element; conditions: in vivo, 1 h
Kidney [26] = experiment: Biodistribution in Sprague-Dawley rat kidney at 11 uCi, iv measured 120 mins post compound dose; assay type: ADME, organism-based; conditions: in vivo, 2 h
Pancreas [27] = experiment: Biodistribution in Sprague-Dawley rat pancreas at 11 uCi, iv measured 2 mins post compound dose; assay type: ADME, organism-based; conditions: in vivo
Hypothalamus [28] = experiment: Biodistribution in Sprague-Dawley rat hypothalamus at 11 uCi, iv measured 120 mins post compound dose; assay type: ADME, organism-based; conditions: in vivo, 2 h
Blood [29] = experiment: Biodistribution in Sprague-Dawley rat blood assessed as compound level per organ at 11 uCi, iv measured 30 mins post compound dose; assay type: ADME, organism-based; conditions: in vivo, 0.5 h
Muscle tissue [30] = experiment: Biodistribution in Sprague-Dawley rat muscle assessed as compound level per organ at 11 uCi, iv measured 30 mins post compound dose; assay type: ADME, organism-based; conditions: in vivo, 0.5 h
Striatum [31] = experiment: Biodistribution in Sprague-Dawley rat striatum at 11 uCi, iv measured 60 mins post compound dose; assay type: ADME, organism-based; conditions: in vivo, 1 h
Nucleic Acid [32] = experiment: Ratio of drug level in hypothalamus to cerebellum in Sprague-Dawley rat at 11 uCi, iv measured 30 mins post compound dose; assay type: ADME, organism-based; conditions: in vivo, 0.5 h
Heart [33] = experiment: Biodistribution in Sprague-Dawley rat heart assessed as compound level per organ at 11 uCi, iv measured 120 mins post compound dose; assay type: ADME, organism-based; conditions: in vivo, 2 h
Brain [34] = experiment: Biodistribution in Sprague-Dawley rat brain at 11 uCi, iv measured 120 mins post compound dose; assay type: ADME, organism-based; conditions: in vivo, 2 h
Brain [35] = experiment: Biodistribution in Sprague-Dawley rat brain assessed as compound level per organ at 11 uCi, iv measured 60 mins post compound dose; assay type: ADME, organism-based; conditions: in vivo, 1 h
Lung [36] = experiment: Biodistribution in Sprague-Dawley rat lung at 11 uCi, iv measured 60 mins post compound dose; assay type: ADME, organism-based; conditions: in vivo, 1 h
Nucleic Acid [37] = experiment: Ratio of drug level in striatum to cerebellum in Sprague-Dawley rat at 11 uCi, iv measured 2 mins post compound dose; assay type: ADME, organism-based; conditions: in vivo
Zone of skin [38] = experiment: Biodistribution in Sprague-Dawley rat skin assessed as compound level per organ at 11 uCi, iv measured 60 mins post compound dose; assay type: ADME, organism-based; conditions: in vivo, 1 h
Pancreas [39] = experiment: Biodistribution in Sprague-Dawley rat pancreas assessed as compound level per organ at 11 uCi, iv measured 2 mins post compound dose; assay type: ADME, organism-based; conditions: in vivo
Liver [40] = experiment: Biodistribution in Sprague-Dawley rat liver at 11 uCi, iv measured 120 mins post compound dose; assay type: ADME, organism-based; conditions: in vivo, 2 h
Cortex [41] = experiment: Biodistribution in Sprague-Dawley rat cortex at 11 uCi, iv measured 30 mins post compound dose; assay type: ADME, organism-based; conditions: in vivo, 0.5 h
Brain [42] = experiment: Biodistribution in Sprague-Dawley rat rest of brain at 11 uCi, iv measured 120 mins post compound dose; assay type: ADME, organism-based; conditions: in vivo, 2 h
Zone of skin [43] = experiment: Biodistribution in Sprague-Dawley rat skin at 11 uCi, iv measured 30 mins post compound dose; assay type: ADME, organism-based; conditions: in vivo, 0.5 h
Muscle tissue [44] = experiment: Biodistribution in Sprague-Dawley rat muscle at 11 uCi, iv measured 60 mins post compound dose; assay type: ADME, organism-based; conditions: in vivo, 1 h
Brain [45] = experiment: Biodistribution in Sprague-Dawley rat brain at 11 uCi, iv measured 60 mins post compound dose; assay type: ADME, organism-based; conditions: in vivo, 1 h
Pancreas [46] = experiment: Biodistribution in Sprague-Dawley rat pancreas at 11 uCi, iv measured 60 mins post compound dose; assay type: ADME, organism-based; conditions: in vivo, 1 h
Striatum [47] = experiment: Biodistribution in Sprague-Dawley rat striatum at 11 uCi, iv measured 2 mins post compound dose; assay type: ADME, organism-based; conditions: in vivo
Lung [48] = experiment: Biodistribution in Sprague-Dawley rat lung at 11 uCi, iv measured 30 mins post compound dose; assay type: ADME, organism-based; conditions: in vivo, 0.5 h
Heart [49] = experiment: Biodistribution in Sprague-Dawley rat heart at 11 uCi, iv measured 120 mins post compound dose; assay type: ADME, organism-based; conditions: in vivo, 2 h
Muscle tissue [50] = experiment: Biodistribution in Sprague-Dawley rat muscle assessed as compound level per organ at 11 uCi, iv measured 2 mins post compound dose; assay type: ADME, organism-based; conditions: in vivo
Nucleic Acid [51] = experiment: Ratio of drug level in cortex to cerebellum in Sprague-Dawley rat at 11 uCi, iv measured 2 mins post compound dose; assay type: ADME, organism-based; conditions: in vivo

Drug uptake (Brain [1]): 2.52 %ID | Drug uptake (Heart [2]): 1.17 %ID | Ratio (Nucleic Acid [3]): 0.85 | Drug uptake (Bone [4]): 0.6 % ID/g | Drug uptake (Pancreas [5]): 0.16 % ID/g | Drug uptake (Hypothalamus [6]): 1 % ID/g | Drug uptake (Spleen [7]): 0.23 %ID | Drug uptake (Brain [8]): 0.13 %ID | Drug uptake (Liver [9]): 2.69 %ID | Drug uptake (Blood [10]): 0.36 % ID/g | Drug uptake (Blood [11]): 2.71 %ID | Drug uptake (Lung [12]): 3.23 % ID/g | Drug uptake (Lung [13]): 0.73 %ID | Drug uptake (Cortex [14]): 0.06 % ID/g | Drug uptake (Hypothalamus [15]): 1.54 % ID/g | Drug uptake (Hypothalamus [16]): 0.32 % ID/g | Drug uptake (Kidney [17]): 4.61 %ID | Drug uptake (Cerebellum): 1.5 % ID/g | Drug uptake (Muscle tissue [18]): 11 %ID | Drug uptake (Muscle tissue [19]): 0.26 % ID/g | Drug uptake (Blood [20]): 6.43 %ID | Drug uptake (Spleen [21]): 0.14 %ID | Drug uptake (Bone [22]): 0.01 %ID | Drug uptake (Pancreas [23]): 0.26 %ID | Drug uptake (Heart [24]): 0.17 % ID/g | Drug uptake (Bone [25]): 0.23 % ID/g | Drug uptake (Kidney [26]): 0.57 % ID/g | Drug uptake (Pancreas [27]): 1.52 % ID/g | Drug uptake (Hypothalamus [28]): 0.1 % ID/g | Drug uptake (Blood [29]): 5.07 %ID | Drug uptake (Muscle tissue [30]): 17.1 %ID | Drug uptake (Striatum [31]): 0.25 % ID/g | Ratio (Nucleic Acid [32]): 4.01 | Drug uptake (Heart [33]): 0.12 %ID | Drug uptake (Brain [34]): 0.06 % ID/g | Drug uptake (Brain [35]): 0.31 %ID | Drug uptake (Lung [36]): 0.42 % ID/g | Ratio (Nucleic Acid [37]): 0.84 | Drug uptake (Zone of skin [38]): 6.4 %ID | Drug uptake (Pancreas [39]): 0.6 %ID | Drug uptake (Liver [40]): 0.41 % ID/g | Drug uptake (Cortex [41]): 0.21 % ID/g | Drug uptake (Brain [42]): 0.06 % ID/g | Drug uptake (Zone of skin [43]): 0.31 % ID/g | Drug uptake (Muscle tissue [44]): 0.13 % ID/g | Drug uptake (Brain [45]): 0.14 % ID/g | Drug uptake (Pancreas [46]): 0.28 % ID/g | Drug uptake (Striatum [47]): 1.28 % ID/g | Drug uptake (Lung [48]): 0.77 % ID/g | Drug uptake (Heart [49]): 0.14 % ID/g | Drug uptake (Muscle tissue [50]): 21.9 %ID | Ratio (Nucleic Acid [51]): 0.92
Structure (SMILES): CN(C)Cc1cc([125I])ccc1Sc1ccccc1CO
